Experimental data as given in paper PMC10293842 (Proceedings of the National Academy of Sciences of the …, 2023).
Positions of bridges follow the written chain, without caps; N, C: chain ends. Residues, ends and D or L forms follow the SMILES beside them.

Columns and labels:
Omicron BA.1 and BA.2 = details: cited from earlier work
Omicron BA.2 = details: cited from earlier work
Omicron BA.1 = details: cited from earlier work
[1] = tested on: SARS-CoV-2 S (Wuhan-Hu-1) pseudo-typed VSV on VeroE6 cells; assay type: cell-based
[2] = tested on: WIV-16-S pseudovirus on VeroE6 cells; assay type: cell-based
[3] = tested on: Beta (B.1.351) S pseudotyped virus on VeroE6 cells; assay type: cell-based, SARS-CoV-2
[4] = tested on: Delta (B.1.617.2) S pseudotyped virus on VeroE6 cells; assay type: cell-based, SARS-CoV-2
[5] = tested on: Omicron BA.2 S pseudotyped virus on VeroE6 cells; assay type: cell-based, SARS-CoV-2
[6] = tested on: SARS-CoV-2 ancestral Wuhan strain in HEK293 ACE2+ TMPRSS2+ cells; details: 24 h
[7] = tested on: Omicron (B.1.1.529) BA.1 S pseudotyped virus on VeroE6 cells; assay type: cell-based, SARS-CoV-2
[8] = tested on: SARS1-S pseudovirus on VeroE6 cells; assay type: cell-based
[9] = tested on: Alpha (B.1.1.7) S pseudotyped virus on VeroE6 cells; assay type: cell-based, SARS-CoV-2

For Cilgavimab [reference compound], the decrease in activity (Omicron BA.1 and BA.2) is listed as 20 fold.
In the case of Sotrovimab, the “loss in potency against Omicron BA.2” value (Omicron BA.2) is given as 27 fold and the “loss in potency against Omicron BA.1” value (Omicron BA.1) is given as “threefold”.
For `CC[C@H](C)[C@@H]1NC(=O)[C@H](CCC(N)=O)NC(=O)[C@H](CCC(=O)O)NC(=O)[C@H](CCCNC(=N)N)NC(=O)[C@@H]2CCCN2C(=O)[C@H](CCCNC(=N)N)NC(=O)[C@H](CCCNC(=N)N)NC(=O)[C@H](Cc2ccc(O)cc2)NC(=O)CSC[C@@H](C(=O)NCC(N)=O)NC(=O)[C@H](Cc2ccccc2)NC(=O)[C@H](C(C)C)NC(=O)[C@H](Cc2c[nH]c3ccccc23)NC(=O)[C@H](CC(C)C)NC(=O)[C@H](CO)NC(=O)CNC(=O)[C@H]([C@@H](C)CC)NC(=O)[C@H]([C@@H](C)CC)NC1=O` [Peptide S1b3inL1] ({CH2CO}-YRRPREQIIIGSLWVFCG-NH2; thioether N-17), the “pseudoviral neutralization activity (in words)” value [1] was “submicromolar concentrations”, the “change of infection inhibition, WIV-16-S” value [2] was 4.1 fold and the “fluctuation of EC50, Beta” value [3] was 3.1 fold. The “fluctuation of EC50, Delta” value [4] was 2.1 fold, the “fluctuation of EC50, Omicron BA.2” value [5] was 2.1 fold and the EC50 [6] was 5.2 µM. For the same compound, the “fluctuation of EC50, Omicron BA.1” value [7] was 3.1 fold, the “change of infection inhibition, SARS1-S” value [8] was 1.3 fold and the “fluctuation of EC50, Alpha” value [9] was 1.5 fold.
